Species: Rattus norvegicus
Assay: DrugMatrix - Regimen: Daily Repeat
Assay type: toxicity, organism-based, Sprague-Dawley
Parameters: regimen Daily Repeat, gender Male, age 6-8 weeks
Details: in vivo, po, route oral GAVAGE, […]; for ABSOLUTE BASOPHIL / ABSOLUTE EOSINOPHIL / ABSOLUTE LYMPHOCYTE / ABSOLUTE MONOCYTE / ABSOLUTE SEGMENTED NEUTROPHIL / BASOPHIL / EOSINOPHIL / ERYTHROCYTE COUNT / HEMATOCRIT / HEMOGLOBIN / LEUKOCYTE COUNT / LYMPHOCYTE / MEAN CORPUSCULAR HEMOGLOBIN / MEAN CORPUSCULAR VOLUME / MONOCYTE / NEUTROPHIL / NUCLEATED RED BLOOD CELLS / PLATELET COUNT: tissue Blood; for ALANINE AMINOTRANSFERASE / ALBUMIN / ALKALINE PHOSPHATASE / ASPARTATE AMINOTRANSFERASE / BLOOD UREA NITROGEN / CARBON DIOXIDE / CHLORIDE / CHOLESTEROL / CREATINE PHOSPHOKINASE / CREATININE / GLUCOSE / LACTATE DEHYDROGENASE / LIPASE / PHOSPHORUS / POTASSIUM / SODIUM / TOTAL BILIRUBIN / TOTAL PROTEIN / URIC ACID: tissue Plasma
[1] = 0 mg/kg, 72 h, dose level Control, time 3 day
[2] = 0 mg/kg, 120 h, dose level Control, time 5 day
[3] = 70 mg/kg, 72 h, dose level M1, time 3 day

CCCCCCCCc1ccc(O)cc1 [4-OCTYLPHENOL]
ABSOLUTE BASOPHIL [1]: 0 CELLS/uL
ABSOLUTE EOSINOPHIL [1]: 0 CELLS/uL
ABSOLUTE LYMPHOCYTE [1]: 11091.17 CELLS/uL
ABSOLUTE MONOCYTE [1]: 172.17 CELLS/uL
ABSOLUTE SEGMENTED NEUTROPHIL [1]: 1186.67 CELLS/uL
BASOPHIL [1]: 0%
EOSINOPHIL [1]: 0%
ERYTHROCYTE COUNT [1]: 5.87 x10E6/uL
HEMATOCRIT [1]: 36.87%
HEMOGLOBIN [1]: 14.03 G/DL
LEUKOCYTE COUNT [1]: 12.45 x10E3/uL
LYMPHOCYTE [1]: 88.67%
MEAN CORPUSCULAR HEMOGLOBIN [1]: 23.93 pg
MEAN CORPUSCULAR VOLUME [1]: 62.73 fL
MONOCYTE [1]: 1.5%
NEUTROPHIL [1]: 9.83%
NUCLEATED RED BLOOD CELLS [1]: 0 /100WBC
PLATELET COUNT [1]: 1150.33 x10E3/uL
ALANINE AMINOTRANSFERASE [1]: 67.17 u/L
ALBUMIN [1]: 4.03 G/DL
ALKALINE PHOSPHATASE [1]: 462.5 u/L
ASPARTATE AMINOTRANSFERASE [1]: 88 u/L
BLOOD UREA NITROGEN [1]: 13.17 mg/dL
CARBON DIOXIDE [1]: 29.33 mmol/L
CHLORIDE [1]: 101 MEQ/L
CHOLESTEROL [1]: 69.17 mg/dL
CREATINE PHOSPHOKINASE [1]: 292.5 u/L
CREATININE [1]: 0.17 mg/dL
GLUCOSE [1]: 167.5 mg/dL
LACTATE DEHYDROGENASE [1]: 198.5 u/L
LIPASE [1]: 10.67 u/L
PHOSPHORUS [1]: 11.73 mg/dL
POTASSIUM [1]: 5.91 MEQ/L
SODIUM [1]: 143.3 MEQ/L
TOTAL BILIRUBIN [1]: 0.18 mg/dL
TOTAL PROTEIN [1]: 5.7 G/DL
URIC ACID [1]: 1.3 mg/dL
ABSOLUTE BASOPHIL [2]: 0 CELLS/uL
ABSOLUTE EOSINOPHIL [2]: 64.33 CELLS/uL
ABSOLUTE LYMPHOCYTE [2]: 12494.67 CELLS/uL
ABSOLUTE MONOCYTE [2]: 117 CELLS/uL
ABSOLUTE SEGMENTED NEUTROPHIL [2]: 1340.67 CELLS/uL
BASOPHIL [2]: 0%
EOSINOPHIL [2]: 0.33%
ERYTHROCYTE COUNT [2]: 5.82 x10E6/uL
HEMATOCRIT [2]: 36.97%
HEMOGLOBIN [2]: 14.18 G/DL
LEUKOCYTE COUNT [2]: 14.02 x10E3/uL
LYMPHOCYTE [2]: 89%
MEAN CORPUSCULAR HEMOGLOBIN [2]: 24.42 pg
MEAN CORPUSCULAR VOLUME [2]: 63.52 fL
MONOCYTE [2]: 0.83%
NEUTROPHIL [2]: 9.83%
NUCLEATED RED BLOOD CELLS [2]: 0 /100WBC
PLATELET COUNT [2]: 1097.83 x10E3/uL
ALANINE AMINOTRANSFERASE [2]: 58.83 u/L
ALBUMIN [2]: 3.92 G/DL
ALKALINE PHOSPHATASE [2]: 414.17 u/L
ASPARTATE AMINOTRANSFERASE [2]: 89.17 u/L
BLOOD UREA NITROGEN [2]: 16.83 mg/dL
CARBON DIOXIDE [2]: 29.17 mmol/L
CHLORIDE [2]: 100.33 MEQ/L
CHOLESTEROL [2]: 54.5 mg/dL
CREATINE PHOSPHOKINASE [2]: 386.17 u/L
CREATININE [2]: 0.23 mg/dL
GLUCOSE [2]: 184.17 mg/dL
LACTATE DEHYDROGENASE [2]: 229.17 u/L
LIPASE [2]: 10.83 u/L
PHOSPHORUS [2]: 10.88 mg/dL
POTASSIUM [2]: 5.97 MEQ/L
SODIUM [2]: 142.2 MEQ/L
TOTAL BILIRUBIN [2]: 0.12 mg/dL
TOTAL PROTEIN [2]: 5.63 G/DL
URIC ACID [2]: 1.55 mg/dL
ABSOLUTE BASOPHIL [3]: 0 CELLS/uL
ABSOLUTE EOSINOPHIL [3]: 0 CELLS/uL
ABSOLUTE LYMPHOCYTE [3]: 11265.33 CELLS/uL
ABSOLUTE MONOCYTE [3]: 137 CELLS/uL
ABSOLUTE SEGMENTED NEUTROPHIL [3]: 1431 CELLS/uL
BASOPHIL [3]: 0%
EOSINOPHIL [3]: 0%
ERYTHROCYTE COUNT [3]: 5.68 x10E6/uL
HEMATOCRIT [3]: 36.37%
HEMOGLOBIN [3]: 13.93 G/DL
LEUKOCYTE COUNT [3]: 12.83 x10E3/uL
LYMPHOCYTE [3]: 88%
MEAN CORPUSCULAR HEMOGLOBIN [3]: 24.57 pg
MEAN CORPUSCULAR VOLUME [3]: 64.1 fL
MONOCYTE [3]: 1%
NEUTROPHIL [3]: 11%
NUCLEATED RED BLOOD CELLS [3]: 0 /100WBC
PLATELET COUNT [3]: 1181.67 x10E3/uL
ALANINE AMINOTRANSFERASE [3]: 74 u/L
ALBUMIN [3]: 3.87 G/DL
ALKALINE PHOSPHATASE [3]: 534.33 u/L
ASPARTATE AMINOTRANSFERASE [3]: 88.33 u/L
BLOOD UREA NITROGEN [3]: 15 mg/dL
CARBON DIOXIDE [3]: 27.33 mmol/L
CHLORIDE [3]: 102.33 MEQ/L
CHOLESTEROL [3]: 67 mg/dL
CREATINE PHOSPHOKINASE [3]: 215 u/L
CREATININE [3]: 0.13 mg/dL
GLUCOSE [3]: 152.67 mg/dL
LACTATE DEHYDROGENASE [3]: 181.67 u/L
LIPASE [3]: 10 u/L
PHOSPHORUS [3]: 11.4 mg/dL
POTASSIUM [3]: 5.59 MEQ/L
SODIUM [3]: 144.4 MEQ/L
TOTAL BILIRUBIN [3]: 0.13 mg/dL
TOTAL PROTEIN [3]: 5.53 G/DL
URIC ACID [3]: 1.63 mg/dL

— ChEMBL document CHEMBL3885881, “DrugMatrix”
